Entries after “also recorded” stand apart in the source; their conditions may differ. Where two headings read alike, the source gives them in different places.
Legend:
[1] = Maximal electroshock seizure (MES) pattern test in rats; type: in vivo, rats (male albino, Sprague Dawley)
Experimental: (§1) All animals were allowed free access to both food (S/L Custom Lab Diet-7) and water, except when they were removed from their cages for the experimental procedure.
(§2) The drugs were administered either orally or intraperitoneally in a volume of 0.01 ml/g body weight in mice and 0.04 ml/10 g in rats. All tests were conducted at the previously determined time of peak drug effect.
(§3) The profile of anticonvulsant activity for each substance was established by five tests: one electrical and four chemical. The electrical test employed was the maximal electroshock seizure pattern test. […] Except for the sc Strych Test, these tests measure the ability of anticonvulsants to afford complete protection against threshold seizures induced by the subcutaneous injection of the CD97 of the convulsant agent.

[2] = Subcutaneous Metrazol Seizure Threshold Test (sc Met) in rats; type: in vivo, rats (male albino, Sprague Dawley)
Experimental: as §2, §3
(§4) All convulsants were administered subcutaneously into a loose fold of skin on the back of the neck in a volume of 0.01 ml/g body weight in mice; Metrazol was injected in a volume of 0.02 ml/10 g body weight in rats. The convulsant drugs were administered at the previously determined time of peak anticonvulsant action of the drug under study. […] Except for strychnine, absence of a five-second episode of clonic spasms (threshold seizure) was taken as protection. In the case of strychnine, complete abolition of the hindleg tonic extension was taken as protection.

[3] = type: in vivo; settings: Phase V, mice, i.p.
Experimental: as §3, §4

[4] = Time of peak effect (TPE) over several tests in mice
Experimental: as §2

in vivo [5] = experiment: in vivo; design: species or system mice; settings: mouse, in vivo, ip
Experimental: (§5) The profile of toxicity for each test drug was established by the following procedures: firstly, the minimal neurotoxic dose (TD50) was determined by the rotorod procedure at the time of peak neurotoxic effect. When a normal mouse is placed on a knurled rod one inch in diameter rotating at a speed of six rpm it can maintain its equilibrium for long periods of time. Neurological deficit is indicated by inability of the mouse to maintain its equilibrium for one minute in each of three trials on this rotating rod. Neurological deficit in rats is indicated by ataxia, loss of placing response and muscle tone. […] These observations also provide preliminary information essential for the subsequent determination of the HD50 and LD50. The HD50 represents the median dose at which 50% of animals lose their righting reflex.

in vivo [6] = settings: mouse
Experimental: as §2, §5

[7] = Oral absorption in mice (oral/i.p. ratios); type: in vivo
Text: The extent of oral absorption can be determined from the ratio of the oral ED50/i.p. […] In mice the oral TD50/i.p. TD50 and oral ED50/i.p.

in vivo [8] = settings: mouse, in vivo; for selectivity ratio: mice, i.p.
Experimental: as §5

[9] = mouse, in vivo
Experimental: as §2, §5

[10] = mouse, in vivo; remark: listed apart in the source
Experimental: as §1, §2, §3, §4

[11] = Time of peak effect (TPE) over several tests in rats; settings: p.o., Compound 9: toxicity, MES and sc Met tests
Experimental: as §2

[12] = design: species or system mice; settings: mouse, in vivo, ip, 1132 mg/kg
Experimental: Consequently, it was necessary to administer the high doses required for the righting reflex and 24-hour lethality tests in mice in double the volume. In view of this fact, additional studies were done to determine the effect of this double volume on the time of peak effect of the test substance. […] […]. Moreover, 1, 3, and 4 of the 8 mice were dead at 20, 40, and 46 hours, respectively. […] Accordingly, additional pharmacokinetic and pharmacodynamic studies will be done in order to reveal mechanisms that may contribute to the long TPE for neurotoxicity and the abnormally low ratio between the minimal-toxic dose and the 24-hour lethal dose.

[13] = Phase I anticonvulsant screening (MES and scMet tests); settings: in words
[14] = not given; remark: listed apart in the source
[15] = Subcutaneous Metrazol Seizure Threshold Test (sc Met) in mice; settings: for ED50: Mus musculus
Experimental: as §1, §2, §3, §4

[16] = Phase III Toxicity Profile in mice i.p. (overt signs of toxicity); type: in vivo
Text: […]. […] […]. […] […].

in vivo [17] = settings: rat, po
Experimental: as §2, §5

[18] = not given; remark: listed apart in the source
[19] = not given; remark: listed apart in the source
animal or person = settings: Mus musculus, sc, read-out: sc CD97 of bicuculline
Experimental: as §3, §4

[20] = 300 mg/kg, four hours after administration
[21] = mice, i.p., from safety ratio TD3/ED97

Clc1ccc(N2N=NCC2c2ccncc2)cc1 (stereo not shown) [Compound 9, 1-(p-Chlorophenyl)-5-(4-pyridyl)-Δ^2-1,2,3-triazoline]
ED50 ([1]; Rattus norvegicus, po, rats): 266 mg/kg
anticonvulsant potency by MES, rats compared with mice ([1]; oral administration): no significant difference in the anticonvulsant potency
97% protection in nontoxic doses, MES ([1]; rats, p.o.): do not provide 97% protection
ED50 ([2]; Rattus norvegicus, po, rats, p.o., read-out: ED50 sc Met): 278 mg/kg
anticonvulsant potency by sc Met, rats compared with mice ([2]; oral administration): no significant difference in the anticonvulsant potency
97% protection in nontoxic doses, sc Met ([2]; rats, p.o.): do not provide 97% protection
effectiveness by the sc Strych test [3]: not effective against sc Strych; also recorded: ineffective after i.p. administration in mice by the sc Strych test
TPE by the anticonvulsant tests ([4]; p.o.): one-half
TPE after oral compared with intraperitoneal administration ([4]; p.o. vs i.p.): significantly different from that obtained after intraperitoneal administration
P.I. against sc Bic, times higher than that for phenobarbital (Phase V, mice, i.p.): fifty
effectiveness by the sc Bic test (Phase V, mice, i.p.): effective against sc Met, sc Bic, and sc Pic in nontoxic doses
P.I. derived from the sc Bic test (in words): high
Slope, regression line, HD50 (righting reflex) (in vivo [5]): 4.27
TD50 (in vivo [5]): 2050 mg/kg
Time of Test / time of peak toxicity, righting reflex (in vivo [5]): 24 h
selectivity ratio (in vivo [6]): 0.62
TD50 (in vivo [6]; ip): 1130 mg/kg
TD50 (in vivo [6]; po): 705 mg/kg
absorption after oral administration [7]: adequately absorbed in mice after oral administration
selectivity (slope of regression line), 24-hour lethality (in vivo [8]): lack of selectivity (flat regression lines)
margin between the minimal toxic dose and the 24-hour lethal dose (in vivo [8]; ip): probably not satisfactory
selectivity ratio (in vivo [8]; ip, 24-hour LD50, rotorod TD50, read-out: Ratio LD50/TD50): 1.88
selectivity ratio (in vivo [8]; ip, 24-hour LD50, read-out: Ratio LD50/HD50): 1.04
LD50 at 24 h (in vivo [8]; ip, read-out: LD50 (lethality)): 2130 mg/kg
TPE (rotorod) ([9]; ip): 12 and 20
TPE by the rotorod test ([9]; po): 24 h
deaths ([9]; po, 600 mg/kg): 1 of 8
deaths (of 8) ([9]; po, 700 mg/kg): 6
deaths ([9]; po, 800 mg/kg): 1 of 8
deaths ([9]; po, 1000 mg/kg): 4 of 8
oral ED50/i.p. ED50, sc Met [10]: 3.50
P.I. by the scMet test ([10]; po): 4.62
P.I. derived from the sc Met test ([10]; sc): high
TPE [11]: six
gross examination of the peritoneal cavity [12]: an unevacuated stomach that was approximately three times normal size; an empty, flaccid small intestine; and a vermiform appendix markedly enlarged from flatus
anticonvulsant potency [13]: most potent
neurotoxicity, rats compared with mice ([14]; rat, in vivo, po): significantly more neurotoxic in rats than it is in mice
toxicity relative to phenobarbital ([14]; rats, p.o.): one-fifth to one-sixth
anti-Metrazol activity [15, 20]: anti-Metrazol activity was present
ED50 ([15]; ip, read-out: ED50 sc Met): 43.5 mg/kg
ED50 ([15]; po, read-out: ED50 scMet): 153 mg/kg
effectiveness by the sc Met test ([15]; Phase V, mice, i.p.): effective against sc Met, sc Bic, and sc Pic in nontoxic doses
safety ratio TD3/ED97, sc Met ([15]; mice): 3.44
Protective Index (P.I.) = TD50/ED50, sc Met ([15]; mice, i.p.): 26.02
Time of Test / time of peak effect (TPE), sc Met ([15]; mice, i.p.): 1/2
mice protected, sc Met, nontoxic doses [15, 21]: 97%
24-hour LD50/ED50 safety ratio by the sc Met test ([15]; mice, in words): high
profile of anticonvulsant activity, Metrazol ([15]; nontoxic doses): elevate the Metrazol seizure threshold in nontoxic doses
toxicity profile ([16]; mice, i.p., 1TD50, 2TD50's and 4TD50's): decreased motor activity, ataxia, decreased respiration and cyanosis
toxicity at the end of 24 hours ([16]; mice, i.p., 2TD50's): One of two animals given 2TD50's was still ataxic and cyanotic at the end of 24 hours
dead 24 hours after drug administration ([16]; mice, i.p., 4TD50's): Both mice given 4TD50's of Compound 9 were dead 24 hours after drug administration
rotorod toxicity ([16]; mouse, in vivo, ip): one of two animals given 4TD50's displayed rotorod toxicity
TD50 (in vivo [17]): 394 mg/kg
P.I. by the sc Pic test compared with phenobarbital, ethosuximide and valproate ([18]; Phase V, mice, i.p.): compares favorably with those for phenobarbital, ethosuximide, and valproate
effectiveness by the sc Pic test ([18]; Phase V, mice, i.p.): lesser effectiveness by the sc Pic test
selectivity (slope of regression line), sc Pic test ([18]; in words): lack of selectivity (flat regression lines)
activity by the MES test [19, 20]: ineffective by the MES test (although the tonic extension was slow)
ED50 MES ([19]; mice, i.p.): 257.42 mg/kg
Protective Index (P.I.) = TD50/ED50, MES ([19]; mice, i.p.): 4.40
Time of Test / time of peak effect (TPE), MES ([19]; mice, i.p.): 1/2
mice protected, MES, nontoxic doses [19, 21]: 97%
ED50 MES ([19]; mice, p.o.): 290.72 mg/kg
potency relative to phenobarbital, MES ([19]; mice, p.o.): 1/15
potency relative to phenytoin, MES ([19]; mice, p.o.): 1/32
97% protection in nontoxic doses, oral ([19]; mice, p.o., MES): the same level of protection is obtained only in mice subjected to the MES test
oral ED50/i.p. ED50, MES ([19]; mouse, in vivo): 1.13
safety ratio TD3/ED97, MES ([19]; mouse, in vivo): 1.13
P.I. by the MES test ([19]; mouse, in vivo, po): 2.42
profile of anticonvulsant activity, electroshock ([19]; nontoxic doses): ability to modify maximal electroshock seizure pattern

CN1CCc2cc3c(cc2[C@H]1[C@@H]1OC(=O)c2c1ccc1c2OCO1)OCO3 [bicuculline]
ED97 (animal or person): 2.7 mg/kg
